Read-outs that look alike come from different tables or passages of the source.
Target: T1, MR (Homo sapiens, UniProt P08235)
T1 construct: expressed in transfected cells; host or cells: Huh7 human liver cells (ATCC), transient transfection with FuGENE 6
T1 sequence (P08235 726-964 limits assumed): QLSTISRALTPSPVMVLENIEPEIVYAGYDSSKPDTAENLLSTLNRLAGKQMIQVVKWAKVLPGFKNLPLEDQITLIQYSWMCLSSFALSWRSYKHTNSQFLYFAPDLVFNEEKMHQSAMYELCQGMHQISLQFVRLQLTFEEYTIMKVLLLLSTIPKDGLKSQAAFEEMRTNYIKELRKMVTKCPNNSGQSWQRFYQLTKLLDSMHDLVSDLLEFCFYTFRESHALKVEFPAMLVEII
Assay: Cell-based reporter assay (Gal4-MR-LBD luciferase, antagonist mode)
Procedure: To measure the ability of test compound in the present invention to modulate the activity of MR (agonize, antagonize, partially agonize, partially antagonize), bioassays were performed that measured the modulation of reporter gene expression. Cells were transiently transfected with a luciferase reporter gene under the control of a Gal4 response element (Gal4-RE-luc) and a plasmid containing the Gal4 DNA binding domain fused to the MR ligand binding domain (Gal4-MR-LBD). Agonists can bind to and activate the MR-LBD, which activates the expression of the luciferase reporter gene through interaction with the Gal4 response element. […] Antagonists can compete for binding to the NHR-LBD and decrease the agonist-induced transcriptional activity of the reporter gene. Therefore, measurement of luciferase activity allowed quantitative determinations of the reporter transcription in the presence of either agonists or competitive antagonists.
The final concentration of DMSO in the test plate was 0.5%. Following an overnight incubation with compound, 25 μL of Steady-Glow™ lysis buffer with luciferase substrate (Promega Corporation, E2550) was added directly to the cells. After a 30-minute incubation to completely lyse the cells, the microplates were counted in an Envision™ Multilabel Reader (Perkin Elmer) in single photon counting mode.

IC50 [nM] | Compound | IC50 (antagonist mode, decrease of EC80 aldosterone signal by 50%, Huh7 cells transfected with Gal4-MR-LBD and Gal4-RE-luc) [nM]
7450 | CC1(C)OCCN(c2ccc3c(n2)NC(=O)CO3)C1c1ccccc1 (stereo not drawn) [Example 53, 6-(2,2-dimethyl-3-phenylmorpholino)-2H-pyrido[3,2-b][1,4]oxazin-3(4H)-one] | –
1970 | O=C1COc2ccc(N3CCOC[C@H]3c3ccccc3)nc2N1 [Example 16, (R)-6-(3-phenylmorpholino)-2H-pyrido[3,2-b][1,4]oxazin-3(4H)-one] | –
1930 | C[C@@H]1CN(c2ccc3c(n2)NC(=O)CO3)[C@H](C)CO1 [Example 71, 6-((2R,5R)-2,5-dimethylmorpholino)-2H-pyrido[3,2-b][1,4]oxazin-3(4H)-one] | –
306 | C[C@@H]1CN(c2ccc3c(c2)NC(=O)CS3)[C@H](c2ccccc2)CO1 [Example 4, 6-((2R,5R)-2-methyl-5-phenylmorpholino)-2H-benzo[b][1,4]thiazin-3(4H)-one] | –
3050 | CC1CN(c2ccc3c(n2)NC(=O)CO3)CCO1 (racemic) [Example 17, 6-(2-methylmorpholino)-2H-pyrido[3,2-b][1,4]oxazin-3(4H)-one] | –
97.9 | N#CC[C@@H]1CN(c2ccc3c(n2)NC(=O)CO3)[C@H](c2ccccc2)CO1 [Example 40, 2-((2R,5R)-4-(3-oxo-3,4-dihydro-2H-pyrido[3,2-b][1,4]oxazin-6-yl)-5-phenylmorpholin-2-yl)acetonitrile] | –
9560 | C[C@@H]1CN(c2ccc3c(n2)NC(=O)C(F)(F)O3)[C@H](c2ccccc2)CO1 [Example 30, 2,2-difluoro-6-((2R,5R)-2-methyl-5-phenylmorpholino)-2H-pyrido[3,2-b][1,4]oxazin-3(4H)-one] | –
– | 6-((2S,5R)-2-(methoxymethyl)-5-phenylmorpholino)-2H-pyrido[3,2-b][1,4]oxazin-3(4H)-one [Example 49] | 358
485 | C[C@@H]1CN(c2ncc3c(n2)NC(=O)CO3)[C@H](c2ccc(F)cc2)CO1 [Example 55, 2-((2R,5R)-5-(4-fluorophenyl)-2-methylmorpholino)-6H-pyrimido[5,4-b][1,4]oxazin-7(8H)-one] | –
111 | C[C@H]1CN(c2cc3c(cn2)OCC(=O)N3)[C@@H](c2ccccc2F)CO1 (racemic) [Example 32, (±)-7-(cis-5-(2-fluorophenyl)-2-methylmorpholino)-1H-pyrido[3,4-b][1,4]oxazin-2(3H)-one] | –
449 | C[C@H]1CN(c2ncc3c(n2)NC(=O)CO3)[C@@H](c2ccccc2Cl)CO1 (racemic) [Example 64, (±)-2-(cis-5-(2-chlorophenyl)-2-methylmorpholino)-6H-pyrimido[5,4-b][1,4]oxazin-7(8H)-one] | –
104 | C[C@@H]1CN(c2ncc3c(n2)NC(=O)CO3)[C@H](c2ccccc2F)CO1 (single isomer, unassigned) [Example 35] | –
977 | C[C@@H]1CN(c2ccc3c(n2)NCCO3)[C@H](c2ccccc2)CO1 [Example 6, 6-[(2R,5R)-2-methyl-5-phenylmorpholin-4-yl]-3,4-dihydro-2H-pyrido[3,2-b][1,4]oxazine] | –
5230 | O=C1COc2ccc(N3CCOC[C@@H]3c3ccccc3)cc2N1 [Example 41, (S)-6-(3-phenylmorpholino)-2H-benzo[b][1,4]oxazin-3(4H)-one] | –
252 | C[C@@H]1CN(c2cc3c(cn2)OCC(=O)N3)[C@H](c2ccccc2)CO1 [Example 46, 7-((2R,5R)-2-methyl-5-phenylmorpholino)-1H-pyrido[3,4-b][1,4]oxazin-2(3H)-one] | –
24 | C[C@@H]1CN(c2ccc3c(c2)NC(=O)CO3)[C@H](c2ccccc2)CO1 [Example 28, 6-((2R,5R)-2-methyl-5-phenylmorpholino)-2H-benzo[b][1,4]oxazin-3(4H)-one] | –
3080 | O=C1COc2ccc(N3CCOC(c4ccccc4)C3c3ccccc3)cc2N1 (stereo not drawn) [Example 75, 6-(2,3-diphenylmorpholino)-2H-benzo[b][1,4]oxazin-3(4H)-one] | –
266 | C[C@@H]1CN(c2ncc3c(n2)NC(=O)CO3)[C@H](c2ccccc2)CO1 [Example 2, 2-((2R,5R)-2-methyl-5-phenylmorpholino)-6H-pyrimido[5,4-b][1,4]oxazin-7(8H)-one] | –
631 | C[C@H]1CN(c2cc3c(cn2)OCC(=O)N3)[C@@H](c2ccccc2Cl)CO1 (racemic) [Example 65, (±)-7-(cis-5-(2-chlorophenyl)-2-methylmorpholino)-1H-pyrido[3,4-b][1,4]oxazin-2(3H)-one] | –
5610 | C[C@@H]1CN(c2ccc3c(n2)NC(=O)CO3)CCO1 (single isomer, unassigned) [Example 19] | –
157 | C[C@@H]1CN(c2ccc3ncc(=O)[nH]c3c2)[C@H](c2ccccc2)CO1 [Example 3, 7-((2R,5R)-2-methyl-5-phenylmorpholino)quinoxalin-2(1H)-one] | –
1230 | C[C@@H]1CN(c2cccc(NS(C)(=O)=O)n2)[C@H](c2ccccc2)CO1 [Example 27, N-(6-((2R,5R)-2-methyl-5-phenylmorpholino)pyridin-2-yl)methanesulfonamide] | –
349 | C[C@@H]1CN(c2ccc3oc(=O)[nH]c3c2)[C@H](c2ccccc2)CO1 [Example 45, 5-((2R,5R)-2-methyl-5-phenylmorpholino)benzo[d]oxazol-2(3H)-one] | –
451 | C[C@H]1CN(c2ccc3c(n2)NC(=O)CO3)[C@@H](c2ccccc2Cl)CO1 (racemic) [Example 66, (±)-6-(cis-5-(2-chlorophenyl)-2-methylmorpholino)-2H-pyrido[3,2-b][1,4]oxazin-3(4H)-one] | –
3000 | O=C1COc2ccc(N3CCO[C@H]4Cc5ccccc5[C@H]43)nc2N1 [Example 20, 6-((4aR,9aS)-2,3,9,9a-tetrahydroindeno[2,1-b][1,4]oxazin-4(4aH)-yl)-2H-pyrido[3,2-b][1,4]oxazin-3(4H)-one] | –
278 | C[C@@H]1CN(c2ccc3c(n2)NC(=O)CO3)[C@H](c2ccc(F)cc2F)CO1 [Example 52, 6-((2R,5R)-5-(2,4-difluorophenyl)-2-methylmorpholino)-2H-pyrido[3,2-b][1,4]oxazin-3(4H)-one] | –
7910 | COc1ccccc1[C@H]1CO[C@@H](C)CN1c1cc2c(cn1)OCC(=O)N2 (racemic) [Example 62, (±)-7-(cis-5-(2-methoxyphenyl)-2-methylmorpholino)-1H-pyrido[3,4-b][1,4]oxazin-2(3H)-one] | –

— US20110281854A1, “MORPHOLINE COMPOUNDS” (Pfizer Inc, priority 2010, published 2011)
